Columns and labels:
[1] = tested on: JTNT1 tobacco cell suspension cultures; assay: Single cell production, growth and viability of JTNT1 suspension with microtubule inhibitors in 24-well plates, glycerol medium; conditions: for cell growth and appearance: all concentrations tested (1, 3, 10 μM)
Description: JTNT1 Tobacco Suspension Cultures. […] Furthermore, Suc stabilizes preformed microtubules, making an examination of the effects of MTIs on preformed microtubules unfeasible. In addition, sucrose increases solution viscosity substantially, and tubulin polymerization is altered at least in part by slowed dimer and polymer diffusion rates. Thus, it was important to have low or no sucrose in medium where the single cell production. Thus, a new JTNT1 line habituated in Glycerol was developed for this study.
Each of the 24 well contained 1 ml of JTNT1 suspension. The 24-well plates were kept on an Innova 4900 Multi Environmental Shaker with special clamps and harnesses to allow stacking of plates up to 6 plates high. The plates were rotated at a speed of 130 rpm and 25° C. in dark.
Single Cell Production. Each compound was dissolved in dimethyl sulfoxide (DMSO) to provide 0.5 Molar stock solutions. One ml of JTNT1 suspension (1 ml PCV/20 ml tobacco media) was added to each well of the 24 well plates. To each well an individual chemical was added to achieve the desired concentrations (at 1 μM, 3 μM, and 10 μM). The cultures were allowed to grow for 7 days on the Innova Shaker. Each day turbidity measurements was taken on each well using a SpectraMax M2^e by Molecular devices (set at 600 absorbance, with 5 readings taken per well). On day 7, cells were observed using the Leica 5000 inverted confocal microscope for formation of single cells and cell viability.

JTNT1 single cells = assay: Cytological characterization of JTNT1 single cells (nucleus, cell wall); type: cell-based, tobacco
Experimental: JTNT1 Tobacco single cell initiation and sample collection. JTNT1 Tobacco single cells were initiated in two different media, NT1B with 3% sucrose (NT1B-Suc) and NT1B with 3% glycerol (NT1B-Gly) in 3.5 day culture cycle. […] The flasks were closed with a foam stopper and cultured on a orbital shaker at 130 rpm in dark at 25-28° C. The cultures were sub cultured every 3.5 days up to a period of 14 days. Four samples (Suc/Gly grown cells and the control cultures in Suc/Gly media with 0.2% DMSO) of the cultures were harvested every 3.5 days by spinning the suspension at 3000 rpm for 5 minutes. The samples were immediately lyophilized to prevent any cell oxidation to minimize any deleterious effect on the samples introduced post harvest. Single cells were stained with Hoechst nuclear stain for an hour and observed under scopes for any nuclear anomaly up to two culture cycles.
Cell viability and Cell wall. Established JTNT1 single cells were used to stain with FUN1 (F-7030, Molecular Probes, Invitrogen Inc) cell stain which is used for viability test in yeast, and this contains two color fluorescent probes. The third one, Calcofluor White M2R which stains cell wall, was used to stain the cells. For JTNT1 single cells, […] of FUN1 stain is added and the culture was incubated at room temperature for 20 mins 1 mL fresh culture media was added to wash the excess stain and centrifuged at 3000 rpm; the supernantant was discarded. The cells were examined and imaged on Zeiss ApoTome microscope.
Nucleus. Single cells were stained with Hoechst nuclear stain for an hour and observed on Zeiss Apo Tome for any nuclear anomaly up to two culture cycles. Crystal violet stain was also used as a live nuclear stain for observing nuclear structure for ploidy characterization

JTNT1 cells = assay: Plasma membrane staining of single cells with FM4-64; type: cell-based, tobacco; conditions: 100 nM
Experimental: Plasmamembrane. JTNT1 cells were incubated with 5 μm FM4-64 (styryl dye) for 5 minutes and washed with fresh media. The culture was centrifuged at 3000 rpm, and fresh media was added. The cells were visualized on Zeiss ApoTome microscope.

plant tubulin = conditions: 1 M Sucrose; cited from earlier work

## CSC(=O)c1c(C(F)F)nc(C(F)(F)F)c(C(=O)SC)c1CC(C)C [Dithiopyr]
[1]; 1 μM and 3 μM
  single cell formation: single cells were formed
[1]; 10 μM
  single cell formation: the concentration of the cells was low
[1]
  cell growth and appearance: healthy, growing and yellow in color

## COc1ccc([C@H]2CC=CC[C@@H]2[N+](=O)[O-])c(OC)c1OC (racemic) [trimethoxyphenylcyclohexene, (±)-4S,5R-4-nitro-5-(2,3,4-trimethoxyphenyl)-cyclohexene]
[1]
  bleaching of cells: mild bleaching
  cell growth and appearance: grew very well
[1]; 1 μM, 3 μM, and 10 μM
  single cell formation: promoted the formation of single cells
[1]; across all levels (1 μM, 3 μM, 10 μM)
  cell viability: 80-90%
JTNT1 single cells; 1 uM, 3.5 d cultures
  nuclear organization of single cells: single nucleus
JTNT1 single cells; 14 days of continuous treatments
  nuclear ploidy: low or no nuclear ploidy percentage

## CCC(C)(CC)c1cc(NC(=O)c2c(OC)cccc2OC)on1 [Isoxeben]
JTNT1 cells
  FM4-64 staining of single cells: extensive vesicle on the surface

## COP(=S)(NC(C)C)Oc1ccc(C)cc1[N+](=O)[O-] (stereo not drawn) [APM, Amiprophosmethyl]
[1]
  concentration at which single cells were formed: 1 to 10 µM
[1]; 1 μM and 3 μM
  cell growth: grew well
[1]; above 1-10 μM
  effect at higher concentration: remarkable reduction of growth and cell division inhibition
[1]; tobacco, 7 days
  cell viability (Fluorescein diacetate and Propidium Iodine stains): up to 70%
Plant tubulin
  effect on plant microtubule length: concentration-dependent decrease in plant microtubule length

From patent US8206983B2, “In vitro methods for the induction and maintenance of plant cell lines as single suspension cells with intact cell walls” (Dow AgroSciences, LLC., priority 2006, dated 2012)
